PMC4942819 (Scientific Reports, 2016)
In brackets after ≈: the same amount, converted by molar mass. Several values for one entry are separate records, joined by “and”; a condition that tells them apart may be missing. Equal entries are not always repeated. Where two headings read alike, the source gives them in different places.

Tests used:
[1] = system: MDR-TB clinical isolates; test: microbe, parasite or virus in culture; assay type: cell-based; details: Mycobacterium tuberculosis
[2] = system: XDR-TB clinical isolates; test: microbe, parasite or virus in culture; assay type: cell-based, Mycobacterium tuberculosis; details: Mycobacterium tuberculosis
[3] = aqueous solubility; assay type: physicochemical
Description: (§1) The In vitro ADME/T assays were conducted at WuXi AppTec Co. Ltd.(Shanghai). ClogP was calculated with ChemDraw Ultra 14.0. In the study of bi-directional permeability across MDR1-MDCKII cell monolayer, permeability was correlated with the apparent permeability coefficient Papp (cm/s), which was interpreted as follows: Low permeability( Papp ≤ 1.0×10^-6 cm/s), Moderate permeability(1.0×10^-6 < Papp < 5.5×10^-6 cm/s) or High permeability( Papp ≥ 5.5×10^-6 cm/s). ^aaqueous solubility at room temperature.

[4] = system: A549 cells; test: cytotoxicity, MTT assay; assay type: cell-based; details: Homo sapiens
Description: (§2) The compounds were examined for toxicity (IC50) using MTT assay. Briefly, cells (3 ~ 5 × 10^3 cells/well) were seeded in a 96-well plate. After 24 h incubation, the cells were treated with various concentrations of drugs for 24, 48, 72 h, respectively. Columns one and two in the assay plates contained-media +0.1% DMSO for a negative control ,Then, 20 μl of a 5 mg/mL MTT solution was added to each well, and the plates were incubated for an additional 2~4 h at 37 °C. The medium was subsequently discarded, and DMSO 150 μL was added to dissolve the formazan. Oscillate 15 min, the OD 570 was measured using a Spectra MAX M5 microplate spectrophotometer (Molecular Devices, CA, USA), and the IC50 values were calculated.

[5] = system: J774A.1 cells; test: cytotoxicity, MTT assay; assay type: cell-based; details: Mus musculus, J774.A1
Description: as §2

[6] = system: M. tuberculosis Erdman; test: in vivo acute M.tb Erdman infection mouse model; set-up: species or system Mycobacterium tuberculosis
[7] = pharmacokinetic study in SD rats; assay type: in vivo; details: female, rat, 5 mg/kg
Description: All animal experiments have been approved by the Institutional Animal Care and Treatment Committee of Sichuan University in China and were carried out in accordance with the approved guidelines. SPF female SD rats weighing 180–220 g were used in the pharmacokinetic study. The rats were fasted overnight before dosing. Every treatment group contain 3 rats. Rats were dosed with SKLB-TB1001 or BTZ043 suspension at 5 mg/kg (i.v. and p.o.). Compounds were dissolved in 5% DMSO/10% Solutol HS15 in saline for intravenous injection and suspended in 0.5% CMC for oral administration. Blood was collected from the jugular vein of each animal at the following times after administration of drugs: 0.083, 0.25, 0.5, 1, 2, 4, 6, 8 and 24 h after a single i.v. dosing; and 0.25, 0.5, 1, 2, 4, 6, 8 and 24 h after a single oral dosing. All blood samples were centrifuged at 3000 r/min for 10 min to obtain serum which was then stored at −20 °C. 150 μL of the serum was added to 500 μL of acetonitrile and the mixture was centrifuged at 13000 r/min for 10 min to remove protein. The supernatant was dried and dissolve in 100 μL of acetonitrile, the solution was centrifuged at 13000 r/min for 10 min. The supernatant was moved to a sample bottle for HPLC analysis. Total area under the concentration time curve (AUC), the elimination half-time (t1/2), the peak concentration (Cmax) and the time to reach peak concentration (Tmax) of samples were determined directly from the experimental data using WinNonlin V6.2.1.

[8] = plasma protein binding; assay type: in vitro ADME; details: mouse
Description: as §1

[9] = biological target: CYP3A4 (Homo sapiens, UniProt P08684); test: CYP inhibition; assay type: in vitro ADME; details: read-out: CYP inhibition IC50, CYP3A4
CYP3A4, sequence (P08684 whole entry): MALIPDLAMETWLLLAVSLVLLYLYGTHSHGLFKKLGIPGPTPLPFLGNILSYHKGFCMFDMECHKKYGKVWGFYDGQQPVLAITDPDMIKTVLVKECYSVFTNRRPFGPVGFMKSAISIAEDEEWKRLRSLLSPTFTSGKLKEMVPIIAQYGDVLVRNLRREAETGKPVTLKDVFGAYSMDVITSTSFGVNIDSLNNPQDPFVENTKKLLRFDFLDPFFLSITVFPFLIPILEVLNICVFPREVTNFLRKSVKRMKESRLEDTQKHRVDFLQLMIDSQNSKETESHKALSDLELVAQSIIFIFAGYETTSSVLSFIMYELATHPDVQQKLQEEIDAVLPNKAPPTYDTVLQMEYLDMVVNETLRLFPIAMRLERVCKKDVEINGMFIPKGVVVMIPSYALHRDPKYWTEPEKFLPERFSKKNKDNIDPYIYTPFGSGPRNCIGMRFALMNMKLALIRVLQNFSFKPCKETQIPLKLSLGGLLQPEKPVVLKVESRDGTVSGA
Description: as §1

[10] = biological target: CYP2D6 (Homo sapiens, UniProt P10635); test: CYP inhibition; assay type: in vitro ADME; details: read-out: CYP inhibition IC50, CYP2D6
CYP2D6, sequence (P10635 whole entry): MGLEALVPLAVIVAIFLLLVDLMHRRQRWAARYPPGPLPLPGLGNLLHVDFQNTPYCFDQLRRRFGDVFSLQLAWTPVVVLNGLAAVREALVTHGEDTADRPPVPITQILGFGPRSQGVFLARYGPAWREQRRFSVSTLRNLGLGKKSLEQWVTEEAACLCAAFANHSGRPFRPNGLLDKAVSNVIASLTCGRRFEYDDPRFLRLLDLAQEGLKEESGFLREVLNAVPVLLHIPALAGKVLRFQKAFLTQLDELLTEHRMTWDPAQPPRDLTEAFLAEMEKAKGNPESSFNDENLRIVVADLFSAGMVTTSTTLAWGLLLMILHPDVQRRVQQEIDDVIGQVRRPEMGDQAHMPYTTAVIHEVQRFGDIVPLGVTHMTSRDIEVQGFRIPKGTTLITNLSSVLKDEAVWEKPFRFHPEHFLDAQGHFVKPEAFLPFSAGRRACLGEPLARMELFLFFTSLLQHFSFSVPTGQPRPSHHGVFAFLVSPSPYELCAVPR
Description: as §1

[11] = biological target: CYP2C19 (Homo sapiens, UniProt P33261); test: CYP inhibition; assay type: in vitro ADME; details: read-out: CYP inhibition IC50, CYP2C19
CYP2C19, sequence (P33261 whole entry): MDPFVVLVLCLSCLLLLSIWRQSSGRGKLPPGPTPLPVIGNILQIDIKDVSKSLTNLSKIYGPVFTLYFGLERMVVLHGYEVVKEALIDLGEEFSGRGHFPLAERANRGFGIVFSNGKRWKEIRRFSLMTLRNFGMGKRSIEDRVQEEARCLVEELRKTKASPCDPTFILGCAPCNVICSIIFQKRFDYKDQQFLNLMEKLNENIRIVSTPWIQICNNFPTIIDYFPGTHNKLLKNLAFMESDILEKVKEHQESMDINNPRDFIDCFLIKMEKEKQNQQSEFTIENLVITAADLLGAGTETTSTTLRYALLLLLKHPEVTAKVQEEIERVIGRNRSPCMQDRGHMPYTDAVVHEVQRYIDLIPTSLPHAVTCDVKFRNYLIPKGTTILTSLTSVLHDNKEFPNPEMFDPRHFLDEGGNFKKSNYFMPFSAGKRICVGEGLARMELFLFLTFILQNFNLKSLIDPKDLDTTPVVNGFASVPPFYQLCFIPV
Description: as §1

[12] = biological target: CYP2C9 (Homo sapiens, UniProt P11712); test: CYP inhibition; assay type: in vitro ADME; details: read-out: CYP inhibition IC50, CYP2C9
CYP2C9, sequence (P11712 whole entry): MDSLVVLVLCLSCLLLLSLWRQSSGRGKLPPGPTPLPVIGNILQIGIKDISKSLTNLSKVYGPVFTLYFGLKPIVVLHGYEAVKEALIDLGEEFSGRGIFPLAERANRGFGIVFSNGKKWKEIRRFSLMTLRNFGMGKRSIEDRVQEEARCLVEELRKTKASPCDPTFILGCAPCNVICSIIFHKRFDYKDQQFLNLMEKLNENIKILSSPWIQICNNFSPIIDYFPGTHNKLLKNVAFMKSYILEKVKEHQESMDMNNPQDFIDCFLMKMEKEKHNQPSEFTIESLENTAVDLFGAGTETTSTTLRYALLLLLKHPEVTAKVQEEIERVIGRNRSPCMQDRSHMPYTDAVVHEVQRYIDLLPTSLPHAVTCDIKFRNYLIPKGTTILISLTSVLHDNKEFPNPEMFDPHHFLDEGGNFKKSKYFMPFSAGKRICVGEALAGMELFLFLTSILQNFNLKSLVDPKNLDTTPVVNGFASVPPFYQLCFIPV
Description: as §1

[13] = system: Mycobacterium tuberculosis H37Ra (ATCC 25177); test: microplate Alamar Blue assay (MABA), MIC, H37Ra; assay type: cell-based
Description: (§3) Compound MIC was conducted by ShangHai Chempartner Co., Ltd (Shanghai, China) using the microplate Alamar Blue assay (MABA) against Mycobacterium tuberculosis H37Ra (ATCC 25177). Cytotoxicity of tested compounds was assessed on Vero cells.

[14] = system: MDR1-MDCKII cell monolayer; test: bi-directional permeability across MDR1-MDCKII cell monolayer; assay type: in vitro ADME; details: dog, MDCK-MDR1
Description: as §1

[15] = system: Mycobacterium avium; test: microdilution plate assay, MIC; assay type: cell-based
[16] = system: Vero cells; test: cytotoxicity, MTT assay; assay type: cell-based; details: Chlorocebus sabaeus
Description: as §2, §3

[17] = system: Mycobacterium tuberculosis Erdman; test: microplate Alamar blue assay (MABA), MIC; assay type: cell-based
[18] = system: Mycobacterium tuberculosis; set-up: method as in PMID 19299584; details: cited from earlier work
[19] = system: M. tuberculosis Erdman in J774A.1 cells; test: macrophage assay, intracellular activity; assay type: cell-based, Mycobacterium tuberculosis
Description: As described previously, J774A.1 cells were grown in 75-cm2 cell culture flasks in 10% FBS in Dulbecco’s modified Eagle’s medium (DMEM) until confluency. The cells were detached using a cell scraper, and then centrifuged at 200 g for 5 min at room temperature. The cells were incubated at 37 °C under 5% CO2 for 16 h after distributing into 24-well plates containing coverslips. M. tuberculosis Erdman (ATCC 35801) were diluted to a final concentration of 1 × 10^5 to 3 × 10^5 CFU/mL with DMEM after thawing and sonicating from frozen cultures. And 500 ul of the dilution was dispensed to each well of a new 24-well plate. Followed by, J774A.1 cells on coverslips were infected by incubation with M. tuberculosis Erdman at 37 °C for 2 h. Coverslips were then washed with HBSS and transferred to new 24-well plates. The Cultures were treated in triplicate with compounds at 0.02 μM containing DMEM and incubated at 37 °C under 5% CO2 for 16 h. At D 0 (for untreated controls) and after 7 days of incubation, macrophage cells were lysed by addition of 200 μL of 0.25% sodium dodecyl sulfate. The plates were incubated at 37 °C for 10 min, and 200 μL of DMEM was added. The lysate was sampled using a microtube and sonicated for 15 s. Then 1:1, 1:10, 1:100, and 1:1,000 dilutions were plated on 7H11 agar plates and CFU counts determined after 2 to 3 weeks of incubation at 37 °C.

[20] = system: M. tuberculosis H37Rv; test: MABA checkerboard synergy assay; assay type: cell-based, Mycobacterium tuberculosis; details: for MIC: Mycobacterium tuberculosis, H37RV, 336 h, checkerboard, drug alone, read-out: MIC against H37Rv, MIC alone
[21] = system: Mycobacterium tuberculosis H37Rv; test: microplate Alamar blue assay (MABA), MIC; assay type: cell-based; details: replicating H37Rv
[22] = read-out: MIC, MDR-TB strain M3
[23] = read-out: MIC, MDR-TB strain M4
[24] = read-out: MIC, MDR-TB strain M8
[25] = read-out: MIC, MDR-TB strain M18
[26] = read-out: MIC, XDR-TB strain X15
[27] = read-out: MIC, XDR-TB strain X17
[28] = Vero, cytotoxicity, read-out: IC50 Vero

## CC[C@@H](CO)NCCN[C@@H](CC)CO [EMB, ethambutol]
[1]; [22]
  MIC: 4 µg/mL (≈ 19.6 µM)
[1]; [23]
  MIC: 2 µg/mL (≈ 9.79 µM)
[1]; [24]
  MIC: 4 µg/mL (≈ 19.6 µM)
[1]; [25]
  MIC: 8 µg/mL (≈ 39.2 µM)
[2]; [26]
  MIC: 16 µg/mL (≈ 78.3 µM)
[2]; [27]
  MIC: 16 µg/mL (≈ 78.3 µM)

## C[C@H]1COC2(CCN(c3nc(=O)c4cc(C(F)(F)F)cc([N+](=O)[O-])c4s3)CC2)O1 [BTZ043]
[3]
  Solubility: <1
[4]
  IC50: 25 µg/mL (≈ 58 µM)
[5]
  IC50: 32 µg/mL (≈ 74.2 µM)
[6]; 150 mg/kg
  activity in the acute Mtb Erdman infection mouse model: not significantly active
[6]; BALB/c mice, Day-36, 150 mg/kg oral daily from day 10
  Log10 CFU (SD), bacterial burden in mouse lungs: 6.31 (5.85)
[7]; SD, in vivo
  bioavailability: 29.5%
[7]; SD, in vivo, po
  AUC: 899 ng·h/mL
  Cmax: 543 ng/mL
  Tmax: 15 min
[7]; plasma, po, SD rats, terminal half-life for elimination
  half-life: 73.2 min
[8]
  fraction unbound: < 0.01
[9]
  IC50: > 10 µM
[10]
  IC50: > 10 µM
[11]
  IC50: > 10 µM
[12]
  IC50: > 10 µM
[13]
  MIC: < 0.1 µM
[14]
  Permeability (Mean Papp, MDR1) A to B: 9.02 10^-6 cm/s
  Permeability (Mean Papp, MDR1) B to A: 7.17 10^-6 cm/s
  efflux ratio: 0.79
[15]
  MIC: 32 µg/mL (≈ 74.2 µM)
[16]; [28]
  IC50: > 100 µg/mL
[16]; cytotoxicity on Vero cells, read-out: IC50
  IC50: > 20 µM
[17]
  MIC: < 0.05 µg/mL
[18]
  MIC: 0.001 µg/mL (≈ 0.00232 µM)
[19]; J774A.1 macrophages, 0.02 μM (Fig. 2 legend: 0.02 μg/mL), 7 days
  Log10 CFU, intracellular Mtb Erdman: 4.70
[19]; decrease of log10 CFU between D7 and treatment group, J774A.1, 0.02 μM (Fig. 2 legend: 0.02 μg/mL)
  Fold(log) reduction: 2.2 log and 2.15 log
[20]
  MIC: 0.011 µg/mL
[20]; in combination with RMP
  MIC against H37Rv, MIC in combo.: 0.008 µg/mL
[21]
  MIC: 0.02 µg/mL (≈ 0.0464 µM)

## COc1c(N2C[C@@H]3CCCN[C@@H]3C2)c(F)cc2c(=O)c(C(=O)O)cn(C3CC3)c12 [MOX, moxifloxacin]
[20]
  MIC: 0.037 µg/mL
[20]; in combination with TB1001
  MIC against H37Rv, MIC in combo.: 0.021 µg/mL

## O=c1nc(N2CCN(CC3CCCCC3)CC2)sc2c([N+](=O)[O-])cc(C(F)(F)F)cc12 [PBTZ169]
[16]; [28]
  IC50: > 100 µg/mL
[17]
  MIC: ≤ 0.05 µg/mL
[21]
  MIC: 0.02 µg/mL (≈ 0.0438 µM)

## NNC(=O)c1ccncc1 [INH, isoniazid]
[15]
  MIC: 16 µg/mL (≈ 117 µM)
[1]; [22]
  MIC: 8 µg/mL (≈ 58.3 µM)
[1]; [23]
  MIC: 1 µg/mL (≈ 7.29 µM)
[1]; [24]
  MIC: 4 µg/mL (≈ 29.2 µM)
[1]; [25]
  MIC: 1 µg/mL (≈ 7.29 µM)
[16]; [28]
  IC50: > 100 µg/mL
[2]; [26]
  MIC: 16 µg/mL (≈ 117 µM)
[2]; [27]
  MIC: 1 µg/mL (≈ 7.29 µM)
[20]
  MIC: 0.03 µg/mL
[20]; in combination with TB1001
  MIC against H37Rv, MIC in combo.: 0.01 µg/mL
[21]
  MIC: 0.47 µg/mL (≈ 3.43 µM)

## NCC[C@H](O)C(=O)N[C@@H]1C[C@H](N)[C@@H](O[C@H]2O[C@H](CN)[C@@H](O)[C@H](O)[C@H]2O)[C@H](O)[C@H]1O[C@H]1O[C@H](CO)[C@@H](O)[C@H](N)[C@H]1O [AMK, amikacin]
[2]; [26]
  MIC: 64 µg/mL (≈ 109 µM)
[2]; [27]
  MIC: 64 µg/mL (≈ 109 µM)
